Patent publication US7576177B2, “Hsp peptides and analogs for modulation of immune responses via antigen presenting cells” (Andromeda Biotech Ltd., priority 2002, dated 2009)

Legend:
[1] = tested on: BALB/c DO.11.10 bone marrow cells cultured for dendritic cells, cocultured with DO.11.10 T cells; test: Education of mouse dendritic cells and stimulation of T-cells, cytokine content of supernatant; type: cell-based
Method: Whelan et al. (J. Immunol 164, 6453-6460, 2000) addressed the problem in mice by an experiment in which mouse bone marrow cells were grown for 6 days in culture with GM-CSF to give immature dendritic cells. These dendritic cells were then incubated overnight with LPS (known to drive cells to DC1) or with a nematode antigen. The reason for the choice of nematode antigen was that injection of this antigen in vivo gives rise to a Th2 response in animals. After this so-called “education” of the dendritic cells, they were washed and subsequently incubated with naive T cells in the presence of antigenic stimulus. The experiment was possible because of the use of transgenic mice in which all the T cells respond to the same peptide (OVA323-339) which absolves the system from any question of bias of the T cell response at the level of the T cells. Any bias should be a consequence of the “education” of the dendritic cells. After three days of incubation the cytokine responses produced by the T cells, were measured by ELISA. […] In contrast, nematode antigen incubation gave rise to more IL-4 (Th2) than did controls while the LPS incubation inhibited the IL4 response. Therefore, the nematode antigen was said to drive cells to DC2. A similar method was used for testing the compounds of the present invention: • 1. Bone marrow cells were extracted from the leg bones of DO.11.10 mice transgenic for the TcR. All cells from these mice respond to the OVA peptide ([…]). • 2. Bone marrow cells were plated at 10^6 cells/ml in 100 mm diameter tissue culture petri dishes in Iscove's medium supplemented with 10% FCS, […], 1 mM sodium pyruvate, penicillin/streptomycin (according to manufacturer's recommendations), non-essential amino acids, 50 μM β-mercaptoethanol and 10 ng/ml mGM-CSF. • 3. After 4 days, the medium was carefully removed and replaced with fresh medium • 4. After 6 days, the non-adherent cells were harvested and used as immature dendritic cells • 5. The immature dendritic cells are plated at 1×10^6 cells/ml, 1 ml/well in 24 well plates in the above medium with various reagents added at various concentrations and incubated overnight. This is the stage in which the dendritic cells are “educated” • 6. The next day the cells were harvested and washed 3 times then resuspended at 5×10^4 cells/ml in 1 ml of the above medium but without the addition of GM-CSF to be cocultured with T cells • 7. […] 5×10^5 T cells were cultured with the dendritic cells from step 6 in the presence of various concentrations of the OVA peptide (0, 0.3 nM, 3 nM and 30 nM). • 9. After 3 days PMA (50 ng/ml) and ionomycin (500 ng/ml) were added to further stimulate the cells. • 10. The next day the cell supernatants were collected and assayed for cytokine content (Interferon γ, IL4, IL-10 and IL-12).
The compound was tested for stimulation of DO.11.10 bone marrow cells according to the assay described above (Production and education of mouse dendritic cells and stimulation of T-cells).
BALB/c DO.11.10 bone marrow cells were cultured for dendritic cells and then stimulated with LPS 1 μg/ml, LPS 10 μg/ml, hsp60 3 μg/ml, hsp60 10 μg/ml, p277 5 μg/ml and p277 50 μg/ml. The cells were then transferred to wells with T cells from fresh BALB/c DO.11.10 mice and stimulated with OVA peptide at different concentrations (0, 0.3 nM, 3 nM, 30 nM). Supernatant was collected after 48 hours for assay. 30 μl was taken for IFN, 40 μl for IL4 and IL-10 and 50 μl for IL-12 assays. The results are presented in the following tables, as amount of cytokine (pg/ml), and in FIG. 1.

[2] = tested on: peripheral blood mononuclear cells cultured with GM-CSF and IL4 (dendritic cells); test: Peripheral blood derived dendritic cells: secreted cytokines (IP-10, IL-8) and cell surface antigens (CD83, CD86); type: cell-based, human
Method: The effect of the compositions of the present invention on peripheral blood derived dendritic cells, was tested according to a protocol described by Re, F. and Strominger, J. L. 2001. Toll-like receptor 2 (Tlr2) and Tlr4 differentially activate human dendritic cells. (J Biol Chem 276: 37692-9). According to this method immature dendritic cells derived from human peripheral blood are used. The outcome after incubating the cells with tested molecules is different if the stimulation is through the Toll 4 receptor or the Toll 2 receptor. According to the authors, Toll 2 signaling by stimulation with zymosan is associated with a Th2 kind of response (exemplified by IL-8) and Toll 4 signaling, such as obtained by LPS stimulation (exemplified by IP-10), with a Th1 type of response. The compositions of the present invention were tested using a similar assay system in order to check which stimulation type they induce. […] The increase in CD86 expression after exposure of APCs to Hsps or Hsp derived peptides is important since CD86 (B7.2) is an essential component of the immunological synapse formed between T cells and APC. This synapse consists of CD80 and CD86 on the side of the APC and CD28 and CD40 on the side of the T cell. T cell recognition of peptide on APC without the concurrent expression of CD86 gives rise to anergy instead of a T cell response. Therefore in order to produce a response all components must be present.
The assay was based on the protocol described by Re, F. and Strominger, J. L. 2001. Toll-like receptor 2 (Tlr2) and Tlr4 differentially activate human dendritic cells. (J. Biol Chem 276: 37692-9).
Peripheral blood mononuclear cells were prepared from leucocytes from blood lots obtained from the blood bank. The cells were plated at 10^8 cells/10 ml/Petri dish in RPMI medium including 10% FCS and allowed to adhere at 37° C. for 2 hours. At the end of this time, the non-adherent cells were washed off the plates with PBS and the adherent cells resuspended in fresh medium as before. The cells were then cultured for at least 8 days with the addition of GM-CSF and IL4 with the medium changed every 4 days. After this time, the cells were harvested and cultured overnight with LPS, zymosan or p277(Val^6-Va^11). The next day, the supernatant was collected for assay of the secreted cytokines (IP-10 and IL-8) and the cells were harvested for investigation of the cell surface antigens (CD83, CD86). CD83 is an antigen characteristic of dendritic cells. […] The second marker, CD86 (B7.2) is characteristic of mature dendritic cells. The marker CD86 is an essential component of the immunological synapse formed between T cells and APC. This synapse consists of CD80 and CD86 on the side of the APC and CD28 and CD40 on the side of the T cell. This is of course in addition to the specific recognition between the T cell receptor and peptide held in the MHC of the APC. T cell recognition of peptide on APC without the concurrent expression of CD86 gives rise to anergy instead of a T cell response.

mouse monocyte line J774 = test: Secretion of oxygen free radicals (oxidative burst) from mouse monocyte line; type: cell-based; conditions: J774, FIG. 5
[3] = compared with non-exposed dendritic cells
[4] = dendritic cells educated with 1 μg/ml, 0.3 nM Ova peptide
[5] = dendritic cells educated with 10 μg/ml, 0.3 nM Ova peptide

Substance	IFN gamma produced by T cells after treatment of dendritic cells (in words) [1, 3]	IL-4 produced by T cells after exposure of dendritic cells (in words) [1, 3]	IL-4 secretion of T cells [1, 4] [pg/mL]	IL-10 secretion of T cells [1, 4] [pg/mL]	IL-12 secretion of T cells [1, 4] [pg/mL]	IFN secretion of T cells ([1]; dendritic cells educated with 1 μg/ml, T cells stimulated with 0.3 nM Ova peptide) [pg/mL]	IFN secretion of T cells [1, 5] [pg/mL]	IL-4 secretion of T cells [1, 5] [pg/mL]	IL-10 secretion of T cells [1, 5] [pg/mL]	IL-12 secretion of T cells [1, 5] [pg/mL]	maturation: percentage of cells stained with anti-CD86 ([2]; overnight stimulation, FIG. 3)	IL-8 ([2]; stimulus 10 ng/ml, overnight) [pg/mL]	IP-10 ([2]; stimulus 10 ng/ml, overnight) [pg/mL]	inhibition of the oxidative burst (secretion of oxygen free radicals) (mouse monocyte line J774)
lipopolysaccharide [LPS, reference compound]	increased IFN gamma	decreased IL4	11.07	15.26	90.00	328.33	478.89	1.07	75.48	131.25	increase of maturation	3131	2520	
VALLRVIPA (Homo sapien) [p277(442-450, Val^6Val^11)]														effective
